Data published in patent US8691498B2, “Methods of screening for a compound that reduces atherogenesis” (Arena Pharmaceuticals, Inc., priority 2005, dated 2014).
pEC50: −log10 of the molar value. Each block holds one compound with its values, some of them ahead of it.

What was measured:
[1] = system: IL-8 mRNA in human macrophage; assay: Steady-state IL-8 mRNA level in human macrophage (microarray); type: cell-based; conditions: 10 μM, 24 hours
Protocol: (§1) Human peripheral blood monocytes were isolated from buffy coat by dextran and ficoll purification. Monocytes were then purified using a monocyte isolation kit from Miltenyi Biotec. Monocytes were cultured for 7 days with 10 ng/ml GM-CSF to derive macrophage cells. […] MCP-1 and IL-8 steady-state mRNA levels were assessed by microarray analysis. Vehicle was dimethyl sulfoxide (DMSO); the final concentration of DMSO in the culture was 0.1% (v/v). Expression levels are the average and SD of two replicates.

GPR88 = GPR88 (Homo sapiens, UniProt Q9GZN0); assay: EC50 at GPR88 (selectivity, data not shown); type: cell-based; conditions: for pEC50: not shown; for selectivity for GPR84 over GPR88: concluded from EC50 at GPR84 and GPR88
GPR84 [2] = molecular target: T1, GPR84 (Homo sapiens, UniProt Q9NQS5); assay: IP3 assay in 293 cells transfected with GPR84, with or without Gq(del)/Gi chimeric G protein; type: cell-based; parameters: expressed in transfected cells; host or cells: 293 cells comprising or not comprising Gq(del)/Gi; conditions: 293 cells comprising Gq(del)/Gi chimeric G protein, 10 μM, 3 hrs
Protocol: IP3 Assay of GPR84 activity was carried out. 293 cells were transfected with either vector alone or vector containing polynucleotide encoding GPR84. […] 24 hrs after transfection, cells were plated into 96 well plates, labeled overnight with ^3H-myoinositol.

[3] = system: ABCA1 mRNA in human macrophage; assay: Steady-state ABCA1 mRNA level in human macrophage (TaqMan); type: cell-based; conditions: human monocyte-derived macrophage, 24 hours
Protocol: Macrophages were derived from monocytes as previously indicated. […] Vehicle was dimethyl sulfoxide (DMSO); the final concentration of DMSO in the culture was 0.1% (v/v). Total RNA was extracted from the cells and analyzed by TaqMan analysis as previously indicated to assess steady-state ABCA1 mRNA level. Data are the average and SD of three replicates. The qPCR reactions were prepared from the cDNA using the Bio-Rad qPCR kit, following the manufacturer's protocol. The qPCR reactions were performed using the ABI Prism 7900HT machine with the following temperatures and times: 50° C.—2 min, 95° C.—10 min followed by 40 cycles of 95° C.—15 sec and 60° C.—1 min.

[4] = system: MCP-1 mRNA in human macrophage; assay: Steady-state MCP-1 mRNA level in human macrophage (microarray); type: cell-based; conditions: 10 μM, 24 hours
Protocol: as §1

GPR84 [5] = molecular target: T1, GPR84; assay: Cyclase (cAMP Flashplate) assay in 293 cells transfected with GPR84; type: cell-based; conditions: 1 hr treatment
From the text: Thyroid-stimulating hormone (TSH, or thyrotropin) receptor (TSHR) causes the accumulation of intracellular cAMP on activation by its ligand TSH. An effective technique for measuring the decrease in production of cAMP corresponding to activation of a Gi-coupled receptor is to co-transfect TSHR with the Gi-coupled receptor and to carry out the assay in the presence of TSH to raise the level of basal cAMP, whereby TSHR acts as a “signal window enhancer.” Such an approach was used here. Cyclase assay of GPR84 activity was carried out. 293 cells were transfected with either vector alone or vector containing polynucleotide encoding GPR84.

[6] = system: TNFα secretion by human macrophage; assay: TNFα secretion by human macrophage (ELISA); type: cell-based; conditions: 10 μM for 24 hrs, absence or presence of LPS
Protocol: Human peripheral blood monocytes were isolated from buffy coat by dextran and ficoll purification. Monocytes were then purified using a monocyte isolation kit from Miltenyi Biotec. Monocytes were cultured for 7 days with 10 ng/ml GM-CSF to derive macrophage cells. […] Vehicle was dimethyl sulfoxide (DMSO); the final concentration of DMSO in the culture was 0.1% (v/v). Cells were then stimulated with the indicated concentrations of LPS for 24 hours. Supernatants were collected and TNFα levels were assayed using a human specific TNFα ELISA kit from Biosource.

[7] = system: TNFα secretion by mouse macrophage cell line RAW; assay: TNFα secretion by mouse macrophage cell line RAW (ELISA); type: cell-based; conditions: RAW cells, 1 μM for 24 hours, absence or presence of LPS
Protocol: RAW cells were cultured to subconfluency. […] Vehicle was dimethyl sulfoxide (DMSO); the final concentration of DMSO in the culture was 0.1% (v/v). Cells were then stimulated with the indicated concentrations of LPS for 24 hours. Supernatants were collected and TNFα levels were assayed using a mouse specific TNFα ELISA kit from Biosource.

GPR84 [8] = molecular target: T1, GPR84; assay: Melanophore pigment aggregation assay, melanophores transiently transfected with human GPR84; type: cell-based; parameters: Full-Length Cloning of Endogenous Human GPR84; expressed in transfected cells; host or cells: melanophores (transient transfection); conditions: representative melanophore assay, one hour incubation
From the text: Melatonin activates an endogenous Gi-coupled receptor in the melanophores and causes them to aggregate their pigment. […] If the receptor were either a Gs or Gq coupled receptor, then the melatonin-aggregated melanophores would undergo pigment dispersion. In contrast, if the receptor was a Gi-coupled receptor, then the pigment-dispersed cells would be expected to undergo a dose-dependent pigment aggregation.

[9] = system: GPR84 mRNA in human monocytes; assay: GPR84 mRNA expression in primary human monocytes (QRT-PCR); type: cell-based; conditions: overnight
From the text: Peripheral blood leukocytes were separated from erythrocytes by sedimentation in a dextran containing saline solution. The leukocytes were washed, and mononuclear cells were isolated on a Ficoll density gradient. Peripheral blood mononuclear cells were then washed and negatively selected using a MACS® monocyte isolation kit II (Miltenyi Biotec, Auburn, Calif.) and LS MACS® cell separation columns according to manufacturer's instructions. Freshly isolated monocytes were then resuspended in culture medium alone or culture medium supplemented with TNFα (10 ng/ml) or IFNγ (10 or 100 ng/ml) and allowed to adhere to wells precoated with vitronectin. Cultures were harvested at the indicated times. GPR84 TaqMan analysis was performed essentially as described in Part A of Example 15, infra. Multiple replicates were obtained from different individual donors. Data are expressed as the mean of the ratio of the GPR84 signal to the HS9 (Human ribosomal protein S9, housekeeping gene) signal±SEM.

GPR84 [10] = molecular target: T1, GPR84; assay: GTPγS binding assay with membranes from GPR84 transfected CHO-KI cells; type: biochemical; conditions: not shown
Protocol: GTPγS assay of GPR84 activity was carried out. Membranes prepared from GPR84 transfected CHO-KI cells were dissolved in binding buffer (20 mM HEPES, pH 7.4, 100 mM NaCl, 10 mM MgCl2) and homogenized briefly using a polytron. Membrane protein concentration was determined by Bradford assay and the membranes were diluted to 0.4 mg/ml in binding buffer. […] Binding was allowed to proceed for one hour before centrifuging the plates at room temperature to pellet the membrane and subsequent counting in a TopCount scintillation counter.

Chain of GPR88 (Q9GZN0 whole entry): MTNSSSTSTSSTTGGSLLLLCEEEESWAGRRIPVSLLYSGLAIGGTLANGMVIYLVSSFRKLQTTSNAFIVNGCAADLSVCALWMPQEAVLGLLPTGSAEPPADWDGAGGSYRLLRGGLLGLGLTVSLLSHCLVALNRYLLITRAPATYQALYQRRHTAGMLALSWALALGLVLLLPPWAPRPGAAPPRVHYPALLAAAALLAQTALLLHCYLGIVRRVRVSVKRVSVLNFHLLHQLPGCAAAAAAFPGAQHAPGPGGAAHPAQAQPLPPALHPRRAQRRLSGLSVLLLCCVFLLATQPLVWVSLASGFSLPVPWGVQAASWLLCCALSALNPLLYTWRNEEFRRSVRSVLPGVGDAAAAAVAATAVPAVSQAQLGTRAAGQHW
T1 sequence (Q9NQS5 whole entry): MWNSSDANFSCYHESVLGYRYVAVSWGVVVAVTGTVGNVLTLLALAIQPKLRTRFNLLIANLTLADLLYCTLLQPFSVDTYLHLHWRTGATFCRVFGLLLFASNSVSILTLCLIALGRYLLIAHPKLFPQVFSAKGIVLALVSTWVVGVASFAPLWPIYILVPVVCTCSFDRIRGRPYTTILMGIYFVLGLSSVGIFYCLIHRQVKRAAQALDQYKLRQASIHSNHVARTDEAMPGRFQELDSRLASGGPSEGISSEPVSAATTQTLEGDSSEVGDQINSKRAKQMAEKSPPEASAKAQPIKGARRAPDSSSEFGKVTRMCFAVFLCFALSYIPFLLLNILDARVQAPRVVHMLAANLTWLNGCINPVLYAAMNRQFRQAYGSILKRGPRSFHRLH

pEC50 (GPR88): < 4.00
level of intracellular IP accumulation (GPR84 [2]): increase
level of intracellular cAMP (GPR84 [5]): decrease
Compound: CCCCCCCCCCCC1=C(O)C(=O)C=C(O)C1=O [Compound 1, 2,5-Dihydroxy-3-undecyl-[1,4]benzoquinone]
steady-state level of IL-8 mRNA [1]: increase
steady-state level of ABCA1 mRNA [3]: increase
steady-state level of MCP-1 mRNA [4]: decrease
TNFα secretion [6]: no effect
TNFα secretion [7]: no effect

selectivity for GPR84 over GPR88 (GPR88): selective GPR84 agonist
pEC50 (GPR88): < 5.00
pEC50 (GPR84 [8]): 7.32
Compound: CCCCCC#CCC#CCC#CCC#CCCCC(=O)O [Compound 2, Icosa-5,8,11,14-tetraynoic acid]

selectivity for GPR84 over GPR88 (GPR88): selective GPR84 agonist
pEC50 (GPR88): < 5.00
pEC50 (GPR84 [8]): 7.51
Compound: CCCCC/C=C/C/C=C/C=C/C=C/[C@@H](O)[C@@H](O)CCCC(=O)O [Compound 3, 5S,6R-Dihydroxy-icosa-7,9,11,14-tetraenoic acid]

Compound: IFNγ: proinflammatory cytokine interferon gamma
GPR84 mRNA expression ([9]; primary monocytes, 10 or 100 ng/ml): dose-dependent increase

Compound: Pertussis toxin
effect on stimulation of GTPγS binding to membrane by Compound 1 (GPR84 [10]): inhibit

Compound: TNFα
GPR84 mRNA expression ([9]; primary human monocytes, 10 ng/ml): significant increase
